This is an account of results in article PMC8659031, “Substituted Aryl Benzylamines as Potent and Selective Inhibitors of 17β-Hydroxysteroid Dehydrogenase Type 3” (Molecules, 2021).

Entries after “also recorded” stand apart in the source; their conditions may differ. Read-outs that look alike come from different tables or passages of the source.

Series [1] concerns the target T1, 17β-HSD3 (Homo sapiens, UniProt P37058).
T1 construct: expressed in transfected cells; host or cells: human 293-EBNA cells, stably transfected
T1 sequence (P37058 1-310): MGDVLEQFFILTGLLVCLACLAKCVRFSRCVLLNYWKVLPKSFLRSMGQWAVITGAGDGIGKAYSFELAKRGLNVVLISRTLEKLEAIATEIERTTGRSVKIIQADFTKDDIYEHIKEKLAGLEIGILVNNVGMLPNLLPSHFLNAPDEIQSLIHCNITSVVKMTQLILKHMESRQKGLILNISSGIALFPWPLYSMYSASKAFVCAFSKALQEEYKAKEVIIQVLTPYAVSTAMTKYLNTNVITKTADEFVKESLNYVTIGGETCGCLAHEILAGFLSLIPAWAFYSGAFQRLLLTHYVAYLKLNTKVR
Briefly: Assay for 17β-HSD3 activity (TLC assay) in 293-EBNA cells stably transfected with 17β-HSD3. It is filed as cell-based. The conditions noted are these: for inhibition at 10 µM: 293-EBNA. Here is the method: Human 293-EBNA cells stably transfected with 17β-HSD3 were plated at 50,000 cells/well in 24 well plates in complete growth medium. After 48 h 2–3 nM [^3H]-androstenedione in assay medium (500 mL DMEM medium with 5 mL 100 × L-glutamine and 5 mL 7.5% sodium bicarbonate solution) was added with or without test compound at 1.5 mL/well (triplicate), and the cells incubated at 37 °C. Two hours later 1 mL medium was removed from each well and placed in a 125 × 16 mm glass test tube containing 25 µL of recovery solution (5000 dpm ^14C-testosterone and 25 µg unlabelled testosterone […], and the tubes vortexed at high speed for 2 × 30 s. After the samples had settled into two phases, they were snap-frozen in a dry ice/methanol bath. The upper organic phase was decanted into 75 × 12 mm tubes and evaporated to dryness under an airstream using a sample concentrator (TECHNE) at 40 °C. The samples were resuspended in ether (8 drops, then a further 3), spotted onto ca 60 F254 20 cm × 20 cm TLC plates and separated using a 4:1 v/v dichloromethane: ethyl acetate mobile phase. After drying the plates, the major spots were marked under a UV lamp, cut out and placed in individual scintillation vials containing 0.5 mL methanol. These were then shaken lightly and allowed to stand for 15 min before adding 10 mL of EcoScintA (scintillation fluid) to each tube along with 0.5 mL assay medium and counted in a scintillation spectrometer (Beckman, High Wycombe, Bucks, UK), using a program for duel [^3H/^14C] isotopes. The number of cells/well was then counted using a Coulter10 counter (Beckman). The inhibitory activity of the test compounds was then assessed by calculating the amount of product formed correcting for crossover between isotope counts, recovery, dilution and non-enzymatic degradation fmol/hr/million cells) with and without inhibitor (% inhibition).

Series [2] in a line: Compound toxicity, MTS/Alamar Blue proliferation assay, LNCaP. It is filed as cell-based. The conditions noted are these: human, LNCaP (AR+) prostate cancer cells; read-out: Cytotoxicity IC50 (µM) LNCaP (AR+). The method, then:
(§1) AR+ (LNCaP) and AR- (PC-3) PCa cell lines were used as standard lines to determine the cytotoxicity of HSD3 inhibitor compounds. Toxicity was assessed over 96 h in 96 well plates using the standard MTS/Alamar Blue proliferation assay and over longer durations by cell counting methodologies.

Series [3] in a line: Compound toxicity, MTS/Alamar Blue proliferation assay, PC-3. To be noted: human, PC-3 (AR-) prostate cancer cells; PC3 (AR-); read-out: Cytotoxicity IC50 (µM) PC3 (AR-). The series is classed as cell-based. The method, then:
as §1

Setting [4] is: 10 μM, TLC assay, mean of at least two measurements, typically SD ±5%.
Where [5] appears, read: TLC assay, 293-EBNA[HSD3] cells, read-out: IC50 (17β-HSD3).

As for `CCNc1ccccc1C(C)Nc1ccccc1Oc1ccc(Cl)cc1` (stereo not shown) [Compound 25, N-(2–1-[2-(4-Chloro-phenoxy)-phenylamino]-ethyl-phenyl)-ethylamine], the inhibition – broadly, the change of the read-out against control, counted positive when it falls – at 10 µM in series [1] (setting [4]) is 20 to 60%.

In the case of `CC(=O)Nc1ccc(Cl)cc1CNc1ccccc1Oc1ccc(OC(F)(F)F)cc1` [Compound 11, N-(4-Chloro-2-[2-(4-trifluoromethoxy-phenoxy)-phenylamino]-methyl-phenyl)-acetamide], the melting point (usually the temperature, or range, at which the solid turns liquid) lay within 121 to 123 °C. Besides, the “17β-HSD3 inhibitory activity in words” value in series [1] was “good activity”.

Turning to `CC(=O)N(C)c1ccccc1CNc1ccccc1Oc1ccc(Cl)cc1` [Compound 14, N-(2-([2-(4-Chloro-phenoxy)-phenylamino]-methyl)-phenyl)-N-methyl-acetamide], the half-maximal inhibitory concentration (IC50) (in general, the midpoint of a concentration-inhibition curve) in series [1] (setting [5]) is 460 nM.

The compound `CC(=O)Nc1ccccc1CNc1ccccc1Oc1ccc(OC(F)(F)F)cc1` [Compound 2, N-(2-([2-(4-Trifluoromethoxy-phenoxy)-phenylamino]-methyl)-phenyl)-acetamide] returned a melting point of 98 to 100 °C. The compound further showed an inhibition at 10 µM in series [1] (setting [4]) of 60 to 70%.

Take `CC(=O)Nc1ccccc1CN(C(C)=O)c1ccccc1Oc1ccc(Cl)cc1` [Compound 17, N-(2-Acetylamino-benzyl)-N-[2-(4-chloro-phenoxy)-phenyl]-acetamide]: the “17β-HSD3 inhibitory activity in words” value in series [1] is “inactive”. In addition, the inhibition at 10 µM in series [1] (setting [4]) is less than 20%.

Take `CC(=O)N1CCC(C(=O)Nc2cccc(CNc3ccccc3Oc3ccc(Cl)cc3)c2)CC1` [Compound 24, 1-Acetyl-piperidine-4-carboxylic acid (3-[2-(4-chloro-phenoxy)-phenylamino]-methyl-phenyl)-amide]: in series [1] (setting [4]), 10 µM produced 97% inhibition. Further, the IC50 in series [1] (setting [5]) amounted to 1100 nM.

Compound `COc1cc(CNc2ccccc2Oc2ccc(Cl)cc2)c(NC(C)=O)cc1OC` [Compound 5, N-(2-[2-(4-Chloro-phenoxy)-phenylamino]-methyl-4,5-dimethoxy-phenyl)-acetamide] had a melting point of 117 to 118 °C. The “17β-HSD3 inhibitory activity in words” value in series [1] was “activity was lost; also recorded: inactive”. The compound further gave an inhibition at 10 µM in series [1] (setting [4]) of less than 20%.

For `COc1cc(CNc2ccccc2Oc2ccc(Cl)cc2Cl)c(NC(C)=O)cc1OC` [Compound 6, N-(2-([2-(2,4-Dichloro-phenoxy)-phenylamino]-methyl)-4,5-dimethoxy-phenyl)-acetamide], the melting point lay in the range of 128 to 131 °C. For the same compound, in series [1], the “17β-HSD3 inhibitory activity in words” value was “activity was lost; also recorded: inactive”. For the same compound, in series [1] (setting [4]), the inhibition at 10 µM is less than 20%.

Compound `CC(=O)Nc1ccccc1CNc1cc(F)ccc1Oc1ccc(Cl)cc1` [Compound 3, N-(2-([2-(4-Chloro-phenoxy)-5′-fluoro-phenylamino]-methyl)-phenyl)-acetamide] gave a melting point of 178 to 180 °C. Besides, in series [1] (setting [4]), the inhibition at 10 µM was 60 to 70%.

As to `CC(=O)N1Cc2ccccc2CSc2ccccc21` [BMS Dibenzazocine], the figures for the half-maximal inhibitory concentration (IC50) at 96 h in series [2] and in series [3] were 19.4 µM and more than 50 µM, respectively. For the same compound, in series [1] (Table 11, read-out: HSD3 Activity (IC50 nM)), the IC50 turned out to be 8.6 nM.

In turn, `C=CC[C@H](Nc1ccccc1Oc1ccc(Cl)cc1)c1ccccc1NC(C)=O` [Compound 32, S-(+)-N-(2-(1-[2-(4-Chloro-phenoxy)-phenylamino]-but-2-enyl)-phenyl)-acetamide] had a melting point of 139 to 141 °C. Further, in series [1], the “17β-HSD3 inhibitory activity in words” value was “active”. For the same compound, in series [1] (setting [5]), the half-inhibitory concentration (IC50) came to 370 nM.

For `CC(=O)Nc1ccc(C)cc1CNc1ccccc1Oc1ccc(Cl)cc1` [Compound 8, N-(2-[2-(4-Chloro-phenoxy)-phenylamino]-methyl-4-methyl-phenyl)-acetamide], the melting point was 138 to 140 °C. In series [1] (setting [4]), this compound registered an inhibition at 10 µM of 60 to 70%.

`CC(=O)Nc1ccccc1CN(C)c1ccccc1Oc1ccc(Cl)cc1` [Compound 16, N-[2-(([2-(4-Chloro-phenoxy)-phenyl]-methyl-amino)-methyl)-phenyl]-acetamide]: the “17β-HSD3 inhibitory activity in words” value in series [1] is “inactive”. Further, the inhibition at 10 µM in series [1] (setting [4]) is less than 20%.

In turn, `CC(=O)Nc1c(CNc2ccccc2Oc2ccc(Cl)cc2)ccc2ccccc12` [Compound 7, N-(2-[2-(4-Chloro-phenoxy)-phenylamino]-methyl-naphthalen-1-yl)-acetamide] showed a melting point of 153 to 155 °C. This compound also had an inhibition at 10 µM in series [1] (setting [4]) of less than 20%.

Regarding `CC(=O)Nc1cccc(CNc2ccccc2Oc2ccc(Cl)cc2)c1` [Compound 20, N-(3-[2-(4-Chloro-phenoxy)-phenylamino]-methyl-phenyl)-acetamide], the melting point lay within 187 to 190 °C. The compound further returned an inhibition at 10 µM in series [1] (setting [4]) of 53%.

For the compound `CC(=O)Nc1ccc(CNc2ccccc2Oc2ccc(Cl)cc2Cl)cc1` [Compound 19, N-(4-([2-(2,4-Dichloro-phenoxy)-phenylamino]-methyl)-phenyl)-acetamide], in series [1], the “17β-HSD3 inhibitory activity in words” value is “inactive”. Moreover, in series [1] (setting [4]), the inhibition at 10 µM is less than 20%.

Regarding `CC(=O)Nc1ccccc1C(C)Nc1ccccc1Oc1ccc(Cl)cc1` (stereo not shown) [Compound 29, N-(2-(1-[2-(4-Chloro-phenoxy)-phenylamino]-ethyl)-phenyl)-acetamide], the concentration for half-maximal inhibition (IC50) at 96 h in series [2] was determined as 14.6 µM; in series [3], 18.3 µM. In series [1] (setting [5]), the IC50 came to 76 nM.

On to `CC(=O)Nc1cc2c(cc1CNc1ccccc1Oc1ccc(Cl)cc1)OCO2` [Compound 4, N-(6-[2-(4-Chloro-phenoxy)-phenylamino]-methyl-benzo[1,3]dioxol-5-yl)-acetamide], for which the melting point fell in the range of 154 to 156 °C. Moreover, in series [1], the “17β-HSD3 inhibitory activity in words” value is recorded as “good activity; also recorded: active”. The same compound displayed an inhibition at 10 µM in series [1] (setting [4]) of 86%. Besides, the IC50 in series [1] (setting [5]) worked out at 450 nM.

`CCCC(Nc1ccccc1Oc1ccc(Cl)cc1)c1ccccc1NC(C)=O` (stereo not shown) [Compound 28, N-(2-(1-[2-(4-Chloro-phenoxy)-phenylamino]-butyl)-phenyl)-acetamide]: in series [1] (setting [5]), the IC50 came to 370 nM.

`CC(=O)Nc1ccc(CNc2ccccc2Oc2ccc(Cl)cc2)cc1` [Compound 18, N-(4-([2-(4-Chloro-phenoxy)-phenylamino]-methyl)-phenyl)-acetamide] displayed a melting point of 137 to 139 °C. This compound returned an inhibition at 10 µM in series [1] (setting [4]) of 29%.

With `CC(=O)Nc1ccc(Cl)cc1CNc1ccccc1Oc1ccc(Cl)cc1` [Compound 9, N-(4-Chloro-2-[2-(4-chloro-phenoxy)-phenylamino]-methyl-phenyl)-acetamide], in series [1] (setting [4]), testing at 10 µM gave an inhibition of 97%. Further, the IC50 in series [1] (setting [5]) is 1900 nM.

Compound `C=CCC(Nc1ccccc1Oc1ccc(Cl)cc1)c1ccccc1NC(C)=O` (stereo not shown) [Compound 26] came in with an inhibition at 10 µM in series [1] (setting [4]) of 20 to 60%. For the same compound, the IC50 in series [1] (setting [5]) came to 520 nM.

`CC(=O)Nc1ccccc1C(Cc1ccccc1)Nc1ccccc1Oc1ccc(Cl)cc1` (stereo not shown) [Compound 27, N-(2-(1-[2-(4-Chloro-phenoxy)-phenylamino]-2-phenyl-ethyl)-phenyl)-acetamide]: in series [1] (setting [4]), the inhibition at 10 µM is less than 20%.

In series [1] (setting [4]), `CC(=O)N1CCC(Nc2ccccc2CN(C(C)=O)c2ccccc2Oc2ccc(Cl)cc2)CC1` [Compound 22, N-[2-(1-Acetyl-piperidin-4-ylamino)-benzyl]-N-[2-(4-chloro-phenoxy)-phenyl]-acetamide] showed an inhibition at 10 µM of 55%.

With `CC(=O)N(C)c1ccccc1CN(C)c1ccccc1Oc1ccc(Cl)cc1` [Compound 15, N-[2-(([2-(4-Chloro-phenoxy)-phenyl]-methyl-amino)-methyl)-phenyl]-N-methyl-acetamide], the “17β-HSD3 inhibitory activity in words” value in series [1] is “weakly active”. In series [1] (setting [4]), the inhibition at 10 µM was 60 to 70%.

Regarding “1-[4-(2-[2-(4-Chloro-phenoxy)-phenylamino]-methyl-phenylamino)-piperidin-1-yl]-ethanone [Compound 21]”, the % Inhibition (commonly the change of the read-out against control, counted positive when it falls) at 10 μM (17β-HSD3) in series [1] (setting [4]) is listed as 36%.

Consider `CC(=O)Nc1ccc(Cl)cc1CNc1ccccc1Oc1ccc(Cl)cc1Cl` [Compound 10, N-(4-Chloro-2-[2-(2,4-dichloro-phenoxy)-phenylamino]-methyl-phenyl)-acetamide], for which the melting point was 135 to 137 °C. Further, the inhibition at 10 µM in series [1] (setting [4]) is less than 20%.
